Measured values: patent US7695969B2, “Methods for generating hypermutable microbes” (priority 2000, dated 2010)
Read-outs that look alike come from different tables or passages of the source.

Tests used:
Format in all cases: cell-based
[1] = test system: empty vector control cells
Protocol: (§1) T7-PMS134 cells and empty vector control cells were grown with IPTG for 48 hours and then diluted 1:50 in LB plus IPTG and increasing amounts of ethyl methane sulfonate (EMS) from 0, 1, 10, 50, 100, and 200 μM. 10 μL aliquots of culture (diluted in 300 μl LB) were plated out on LB agar plus ampicillin plates and grown overnight at 37 C. The next day plates were analyzed for cell viability as determined by colony formation. […] The 200 μM treatment was toxic for both lines.

T7-PMS134 BL21 cells = test: EMS toxicity, cell viability by colony formation
Protocol: as §1

[2] = test system: kanamycin resistant pT7-PMS134 and pT7-PMSR3 colonies; test: Genetic stability of kanamycin resistance (revertants)
Protocol: As described in EXAMPLE 2 and 3, manipulation of the MMR pathway in microbes results in alterations within the host genome and the ability to select for a novel output traits. It is important that the mutations introduced as a result of defective MMR is genetically stable and passed on to daughter cells once a desired output pathway is established. To determine the genetic stability of mutations introduced into the microbial genome the following experiment was performed. Five independent colonies from pT7-PMS134 and pT7-PMSR3 that are kanamycin resistance were grown overnight from an isolated colony in 5 ml of LB. Next, 1 μL of the overnight culture from these cultures were inoculated into another 5 mL of LB and grown overnight to saturation. Under these growth conditions the microbial cells have divided over 20 generations. Therefore, if the new output trait generated by alteration of MMR is unstable, the cells should “revert” back from kanamycin resistance to kanamycin sensitivity. Cells were plated onto LB plates and incubated overnight at 37° C. Next, the colonies (about 1,000/plate) were replica plated to LB, LB^amp100, and LB^kan50 plates and incubated at 37° C. overnight. […] Extended culturing of cells and replica plating found no reversions of KAN resistance in cultures grown in the absence of IPTG, which produce no PMS134 as determined by western blot (data not shown).

BL21 cells = test: Kanamycin-resistance (hypermutability) assay in BL21; details: for KAN resistant cells: after 24 hr IPTG-induction; for KAN resistant clones: non-IPTG-induced conditions
Protocol: However, upon addition of the inducer IPTG, the cells express high-levels of T7 polymerase due to the IPTG-inducible element that drives expression of the polymerase that is resident within the genome of the BL21 cells (30). The BL21 cells are chloramphenicol resistant due to the plasmid that expresses lysozyme within the cell. To introduce the pT7-hPMS 134 or the pT7-hPMSR3 genes into BL21 cells, the cells were made competent by incubating the cells in ice cold 50 mM CaCl2 for 20 minutes, followed by concentrating the cells and adding super-coiled plasmid DNA as describe (Maniatis, T. et. al. Cold Spring Harbor Laboratory Press, Third Edition, 2001). Ampicillin resistant BL21 were selected on LB-agar plates [[…], 1.5% bactoagar, pH 7.0 (Difco)] plates containing 25 μg/ml chloramphenicol and 100 μg/ml ampicillin. The next day, bacterial colonies were picked and analyzed for vectors containing an intact pTACPMS134 or pTAC empty vector by restriction endonuclease digestion and sequence analysis.
Kanamycin-resistant assays using BL21 cells expressing the V5-tagged or untagged PMS134 or PMSR3 polypeptides were carried out as described above. BL21 bacterial cells that harbor the empty vector, pT7-PMS134 or pT7-PMSR3 were grown overnight in LB supplemented with 100 μg/ml ampicillin. The overnight cultures were diluted 1:100 into fresh ampicillin containing medium and grown for 2.5 hours at 37° C. with continuous shaking. When the cells reached an optical density (OD) of 0.6, measured at 600 nm, IPTG was added to each culture to a final concentration of 0.5 mM. Cells were incubated for 24, and 48 hours; at those time points cells were removed for SDS-PAGE analysis and plating (see above). BL21/pT7 (empty vector), BL21/pT7-PMS134, and BL21/pT7-R3 cells were plated onto LB plates, LB plates that contained 100 ug/ml ampicillin, and plates that contain 50 ug/ml Kanamycin. The equivalent of 1×10^7 cells/plate were spread onto the plates. BL21 cells that harbor the empty vector are capable of growth on LB plates as well as LB plates that contain 100 ug/ml ampicillin; that is as expected since the pT7 expression vector renders the cells ampicillin resistant. The vector only control is not capable of growth on Kanamycin.

**Q.** For `CCOS(C)(=O)=O` [EMS, ethyl methane sulfonate], which colony number ([1]; 1 uM EMS) is on record?
**A.** The colony number was over 1000 colonies.

**Q.** What about the colony number ([1]; 10 uM EMS) of the same molecule?
**A.** Its colony number is over 1000 colonies.

**Q.** What about the “number of control cells” value ([1]; 50 μM EMS) of the same molecule?
**A.** Its value is 30.

**Q.** What about the “number of control cells” value ([1]; 100 μM EMS) of the same molecule?
**A.** Its value is 0.

**Q.** What about the “toxicity (in words)” value ([1]; 200 μM EMS) of the same molecule?
**A.** Its value is “toxic”.

**Q.** What about the colony number (T7-PMS134 BL21 cells; 1 uM EMS) of the same molecule?
**A.** Its colony number is over 1000 colonies.

**Q.** And the colony number (T7-PMS134 BL21 cells; 10 uM EMS)?
**A.** The colony number was over 1000 colonies.

**Q.** What about the “colony number (in words)” value (T7-PMS134 BL21 cells; 50 μM EMS) of the same molecule?
**A.** Its value is “No difference”.

**Q.** What about the “reduction in colony number” value (T7-PMS134 BL21 cells; 100 μM EMS) of the same molecule?
**A.** The value was 3 fold.

**Q.** What about the “toxicity (in words)” value (T7-PMS134 BL21 cells; 200 μM EMS) of the same molecule?
**A.** Its value is “toxic”.

B1: PMS134: dominant negative human PMS2 truncated at codon 134; N-terminal 133 amino acids (SEQ ID NO: 21) (protein, listed as Homo sapiens)
chain: MKQLPAATVRLLSSSQIITSVVSVVKELIENSLDAGATSVDVKLENYGFDKIEVRDNGEGIKAVDAPVMAMKYYTSKINSHEDLENLTTYGFRGEALGSICCIAEVLITTRTAADNFSTQYVLDGSGHILSQK
**Q.** How did the “revertants of KAN resistance” value ([2]; continually grown in IPTG, out of 1200) turn out when B1 was run?
**A.** Its value is 5.

**Q.** What about the “loss of KAN resistant clones” value ([2]; grown in the absence of IPTG) of the same molecule?
**A.** Its value is “No loss”.

**Q.** What about the KAN resistant cells (BL21 cells) of the same molecule?
**A.** The KAN resistant cells was “significant number”.

**Q.** And the KAN resistant clones (BL21 cells)?
**A.** Its KAN resistant clones is “failed to produce any KAN resistant clones”.

B2: PMSR3: human PMS2 related gene product (SEQ ID NO: 24) (protein, listed as Homo sapiens)
chain: MCPWRPRLGRRCMVSPREADLGPQKDTRLDLPRSPARAPREQNSLGEVDRRGPREQTRAPATAAPPRPLGSRGAEAAEPQEGLSATVSACFQEQQEMNTLQGPVSFKDVAVDFTQEEWRQLDPDEKIAYGDVMLENYSHLVSVGYDYHQAKHHHGVEVKEVEQGEEPWIMEGEFPCQHSPEPAKAIKPIDRKSVHQICSGPVVLSLSTAVKELVENSLDAGATNIDLKLKDYGVDLIEVSDNGCGVEEENFEGLISFSSETSHM
**Q.** What does the source list for B2?
**A.** KAN resistant cells (BL21 cells): significant number; KAN resistant clones (BL21 cells): failed to produce any KAN resistant clones
